Here are results for 52 compounds from PubChem BioAssay AID1996.

The kinetic solubility is solubility judged after dilution from a stock solution rather than from solid.

The structures appear in SMILES notation. In brackets after ≈: the same amount, converted by molar mass.

For the data set the following is noted: buffer; pH 7.4; 200.0 µM.
On to `COc1cc(NC(=O)C(C)C)ccc1NC(=O)c1cc2ccccc2o1`, for which the solubility (kinetic) was 0.7 µg/mL (≈ 1.99 µM).
The compound `CC1(C)Cc2ccccc2C(NN=C2CCCC2)=N1` displayed a solubility (kinetic) above 38.3 µg/mL.
Regarding `CC(=O)c1c(C)n(CC(=O)NCc2ccco2)c2ccccc12`, the solubility (kinetic) worked out at 18.5 µg/mL (≈ 59.6 µM).
Under `Cc1c(C(=O)OCC(=O)N2CCCCC2C)oc2ccccc12` (configuration not stated) stands above 47.3 µg/mL; under `CC(=O)Nc1ccc(C(=O)COC(=O)C2CCCCC2)c(F)c1`, 10.7 µg/mL (≈ 33.3 µM); under `CC(CCc1ccccc1)NC(=O)Cc1cccs1` (configuration not stated), 36 µg/mL (≈ 132 µM).
`Cc1ccc(NC(=S)NCCN2CCOCC2)cc1F` had a solubility (kinetic) above 44.6 µg/mL.
As to `N#CC(C(=O)c1ccccc1)=C1SCCS1`, the solubility (kinetic) was found to be 1.8 µg/mL (≈ 7.28 µM).
With `NC(=O)COc1ccc2oc(-c3ccccc3)cc(=O)c2c1` the figure was 1.1 µg/mL (≈ 3.73 µM).
The compound `CSc1cccc(NC(=O)c2[nH]c(C)c(C(C)=O)c2C)c1` registered a solubility (kinetic) of 7.3 µg/mL (≈ 24.1 µM).
Consider `O=C1C2CCCCC2C(=O)N1c1nccs1` (configuration not stated), for which the kinetic solubility was above 35.4 µg/mL.
In the case of `Cc1ccc2nc(CCc3ccc(N)cc3)[nH]c2c1.Cl`, the kinetic solubility was above 48.6 µg/mL.
Under `CN1CCN(C(=O)/C(=C/c2ccccc2F)NC(=O)c2ccccc2)CC1` stands above 55.1 µg/mL; under `Cc1cccc(Oc2c([N+](=O)[O-])c(=O)n(C)c3ccccc23)c1`, 6.6 µg/mL (≈ 21.3 µM).
The compound `O=C(c1ccc2ccccc2n1)N1CCN(c2ccccn2)CC1` came in with a kinetic solubility above 47.8 µg/mL.
`Cc1ccccc1OCCn1c(=S)[nH]c2ccccc21` came in with a kinetic solubility of 0.5 µg/mL (≈ 1.76 µM).
As to `CCCCc1c(O)nc(SCC(=O)N2CCCCCC2)[nH]c1=O`, the solubility (kinetic) was determined as 48.9 µg/mL (≈ 144 µM).
`CN1C(=O)N(C)c2cccc3cccc1c23` returned a solubility (kinetic) of 0.8 µg/mL (≈ 3.77 µM).
Turning to `Cc1ccc(CNCC(O)(c2ccccc2)c2ccccc2)cc1`, the solubility (kinetic) is 6 µg/mL (≈ 18.9 µM).
`Nc1c(C(=O)O)cnn1-c1ccccc1` showed a solubility (kinetic) above 30.5 µg/mL.
`COc1ccc(CCNc2nc(-c3ccc(O)cc3)cs2)cc1OC` displayed a kinetic solubility of 29.2 µg/mL (≈ 81.9 µM).
Under `Fc1cccc(Nc2nc(Cl)nc(Cl)n2)c1` stands 36.2 µg/mL (≈ 140 µM).
For `O=C(Nc1ccccc1)Nc1ccccc1C(=O)NCC1CC1`, the kinetic solubility came to 5.1 µg/mL (≈ 16.5 µM).
In turn, `O=C(CN1C(=O)S/C(=C\c2cc(Cl)c(O)c(Cl)c2)C1=O)Nc1ccccc1` came in with a solubility (kinetic) of 3.6 µg/mL (≈ 8.51 µM).
Turning to `c1ccc(OCCCCN2CCCCC2)cc1`, the solubility (kinetic) amounted to 29.6 µg/mL (≈ 127 µM).
`Clc1ccc(-c2ccnc(-n3cccc3)n2)s1` came in with a kinetic solubility below 0.2 µg/mL.
In turn, `COc1ccc(C)cc1S(=O)(=O)n1cnc(C)c1` had a kinetic solubility above 39.9 µg/mL.
Turning to `Cc1nc(-c2ccccc2)ccc1C(=O)O`, the kinetic solubility was above 32 µg/mL.
As for `CC(=O)c1cccc(NC(=O)C(C)OC(=O)C2CCC2)c1` (configuration not stated), the kinetic solubility was above 43.4 µg/mL.
Turning to `COc1cc2c(cc1NC(=O)COCC(=O)O)oc1ccccc12`, the solubility (kinetic) is above 49.4 µg/mL.
With `Cc1ccc(SCCNC(=O)c2ccc([N+](=O)[O-])c(C)c2)cc1` the figure was 9.5 µg/mL (≈ 28.8 µM); with `CCCCOc1ccc(CC2CCC(=O)NC2=O)cc1` (configuration not stated), 10.2 µg/mL (≈ 37 µM); with `CC1CCC(NC(=S)NCCN(C)C)CC1` (configuration not stated), 25.6 µg/mL (≈ 105 µM).
`CCc1ccc(-c2csc3nc[nH]c(=O)c23)cc1` had a solubility (kinetic) of 12 µg/mL (≈ 46.8 µM).
With `CC(=O)c1sc2nc(-c3ccco3)ccc2c1N` the figure was 6 µg/mL (≈ 23.2 µM); with `CNC(=S)N(CCc1c(C)[nH]c2ccc(Cl)cc12)Cc1cccnc1`, 46.2 µg/mL (≈ 124 µM); with `Cc1cccc(N(Cc2cc(=O)[nH]c3ccccc23)C(=O)C(C)C)c1`, 36.3 µg/mL (≈ 109 µM).
In turn, `O=C(COC(=O)c1ccc(O)cc1)NC1CCCC1` displayed a solubility (kinetic) above 39.5 µg/mL.
Take `N#C/C(=C\c1cccs1)C(=O)c1ccccc1Cl`: the solubility (kinetic) was above 41.1 µg/mL.
In turn, `O=C(c1cccc([N+](=O)[O-])c1)N1CCN(C/C=C/c2ccccc2)CC1` returned a kinetic solubility of 52 µg/mL (≈ 148 µM).
Turning to `COc1ccc(CNC(=O)COC(=O)/C=C/c2cccc(Cl)c2)cc1`, the kinetic solubility came to 3.3 µg/mL (≈ 9.17 µM).
In the case of `COCCNC(=O)C12CC3CC(CC(Cl)(C3)C1)C2`, the solubility (kinetic) is above 40.8 µg/mL.
The compound `CCc1c(C)c2cc(Cl)c(O)c(CN3CCCC3)c2oc1=O` registered a solubility (kinetic) of 30.5 µg/mL (≈ 94.8 µM).
In turn, `CNC(=O)O/N=C(\N)Cc1csc2ccc(Cl)cc12` yielded a solubility (kinetic) of 44.1 µg/mL (≈ 148 µM).
In turn, `Cc1cc(C(=O)NCC(=O)Nc2ccc(F)c(F)c2)c(C)o1` came in with a solubility (kinetic) of 11.3 µg/mL (≈ 36.7 µM).
With `CC(=O)N1CCN(Cc2nc3ccc(Cl)cc3n2CCO)CC1` the figure was above 50.5 µg/mL.
For the compound `O=C(O)c1cc(O)ccc1NC(=O)C1CCCO1` (configuration not stated), the solubility (kinetic) was 30.1 µg/mL (≈ 120 µM).
`CC(=O)c1ccc(N2CCN(Cc3nc4ccccc4[nH]3)CC2)cc1`: the kinetic solubility was 29.8 µg/mL (≈ 89.1 µM).
Under `O=C(O)C1C2c3ccccc3C(c3ccccc32)C1C(=O)Nc1ccccc1` (configuration not stated) stands above 55.4 µg/mL; under `O=C(C1CCCCC1)N1CCc2[nH]c3ccc(F)cc3c2C1`, 0.4 µg/mL (≈ 1.33 µM).
Compound `O=C(Nc1ccccc1Cl)NC1(C(=O)N2CCOCC2)CCCCC1` showed a kinetic solubility of 25.8 µg/mL (≈ 70.5 µM).
The compound `COc1ccc(S(=O)(=O)Nc2cc(C)on2)cc1` returned a kinetic solubility of 36.1 µg/mL (≈ 135 µM).
